Values of other authors in patent publication US11229703B2, “Radiotherapy improvements” (NOXOPHARM LIMITED, priority 2016, dated 2022).

Columns and labels:
[1] = tested on: cancer, especially metastatic disease involving solid tumours; settings: compound alone, various clinical trials
[2] = tested on: hormone refractory prostate cancer; settings: males with hormone refractory prostate cancer given idronoxil ranging from 20 to 400 mg; 6 months from treatment

Oc1ccc(C2=Cc3ccc(O)cc3OC2)cc1 [idronoxil, 2H-1-Benzopyran-7-0,1,3-(4-hydroxyphenyl)]
complete or partial response to cancer [1]: unable to provide either a complete or partial response
disease progression [2]: disease had progressed in most individuals by 6 months

O=c1c(-c2ccc(O)cc2)coc2cc(O)cc(O)c12 [genestein, reference compound]
complete or partial response to cancer [1]: unable to provide either a complete or partial response
